# Experimental data published in patent publication US11466044B2 (WAYNE STATE UNIVERSITY, priority 2017, dated 2022).
# Structures can show the parent of a compound that is named as a salt. Where two headings read alike, the source gives them in different places.
# What was measured:
# MRSA = assay: MIC by broth microdilution, MRSA isolates; format: cell-based; conditions: Staphylococcus aureus, MRSA, Table 1 (Example 3)
# E coli wild type = assay: MIC by broth microdilution, wild type E coli; format: cell-based; conditions: Escherichia coli
# P aeruginosa = assay: MIC by broth microdilution, P aeruginosa isolates; format: cell-based, Pseudomonas aeruginosa; conditions: strain AG220 Pseudomonas aeruginosa ATCC27853; read-out: MIC AG220 P. aerugin
# [1] = test system: E coli carrying specific resistance determinants; assay: MIC by broth microdilution, E coli carrying specific resistance determinants; format: cell-based; conditions: Escherichia coli
# M. abscessus = assay: MIC by broth microdilution, M. abscessus; format: cell-based; conditions: Mycobacteroides abscessus
# [2] = test system: wild type bacterial ribosomes; assay: in-vitro translation assay, bacterial ribosomes; format: biochemical
# Description: (§1) The antiribosomal activity of these compounds was investigated with cell-free translation assays using both wild type bacterial ribosomes and hybrid ribosomes carrying eukaryotic decoding A sites enabling the prediction of selectivity.
# [3] = test system: A1555G mutant mitochondrial ribosome (human chimeric); assay: in-vitro translation assay, human chimeric ribosomes, A1555G mutant mitochondrial decoding site; format: biochemical; conditions: Table 3 (Example 3)
# Description: as §1
# [4] = test system: cytosolic ribosome (human chimeric); format: biochemical
# Description: as §1
# [5] = test system: mitochondrial ribosome (human chimeric); format: biochemical
# Description: as §1
# [6] = test system: Klebsiella pneumonia AG215; assay: MIC by broth microdilution, Klebsiella pneumonia; format: cell-based; conditions: Klebsiella pneumoniae; strain AG215 Klebsiella pneumonia; read-out: MIC AG215 K. pneumon
# [7] = test system: Acinetobacter baumannii pittii AG225; assay: MIC by broth microdilution, Acinetobacter baumannii; format: cell-based; conditions: strain AG225 Acinetobacter baumannii pittii
# [8] = test system: Enterobacter cloacae AG290; assay: MIC by broth microdilution, Enterobacter cloacae; format: cell-based; conditions: strain AG290 Enterobacter cloacae; read-out: MIC AG290 E. cloacae
# N. gonorrhoeae = assay: Disk diffusion, N. gonorrhoeae; format: cell-based; conditions: Neisseria gonorrhoeae
# M. smegmatis SZ380 = assay: MIC by broth microdilution, M. smegmatis; conditions: Mycolicibacterium smegmatis
smiles,measurement,setting,value
"CNC1C(OC2C(N)CC(N)C(O)C2OC2OC(CO)C(OC3OC(CN)C(O)C(O)C3N)C2O)OC(CN)C(O)C1O (centres unmarked) [Compound 171, 2′-N-Methyl-neomycin acetate salt]",MIC,"MRSA; clinical isolate AG038, read-out: MIC MRSA AG038",0.25 to 0.5 µg/mL
same,MIC,"MRSA; clinical isolate AG039, read-out: MIC MRSA AG039",> 32 µg/mL
same,MIC,"MRSA; clinical isolate AG042, read-out: MIC MRSA AG042",> 32 µg/mL
same,MIC,"E coli wild type; AG006 Wild type, Table 2 (Example 3), read-out: MIC E coli AG006 Wild type",0.25 µg/mL
same,MIC,"E coli wild type; AG104 Wild type, Table 2 (Example 3), read-out: MIC E coli AG104 Wild type",0.5 µg/mL
same,MIC,"E coli wild type; ATCC25922, strain AG212 E. coli (ATCC25922), read-out: MIC AG212 E. coli",1 µg/mL
same,MIC,"E coli wild type; WT, Table 4 (Example 3), read-out: MIC E. coli WT",0.5 µg/mL
same,MIC,"E coli wild type; WT, Table 5 (Example 3), read-out: MIC E. coli WT",0.5 µg/mL
same,MIC,"E coli wild type; clinical isolate AG001, Table 1 (Example 3), read-out: MIC E coli AG001",1 µg/mL
same,MIC,"E coli wild type; clinical isolate AG003, Table 1 (Example 3), read-out: MIC E coli AG003",1 µg/mL
same,MIC,"E coli wild type; clinical isolate AG055, Table 1 (Example 3), read-out: MIC E coli AG055",1 µg/mL
same,MIC,P aeruginosa,> 64 µg/mL
same,MIC,[1]; read-out: MIC E coli AG106 AAC(2′),0.5 µg/mL
same,MIC,[1]; read-out: MIC E. coli AAC(2′) AG106,0.5 µg/mL
same,MIC,[1]; read-out: MIC E. coli AAC(2′) pH434,4 µg/mL
same,MIC,[1]; read-out: MIC E. coli AG106 AAC(2′)-Ia,0.5 µg/mL
same,MIC,[1]; read-out: MIC E. coli pGB2armA armA,1 µg/mL
same,MIC,[1]; read-out: MIC E. coli pH434 AAC(2′)-Ib,4 µg/mL
same,MIC,"M. abscessus; ATCC19977, ATCC 19977 WT, Table 5 (Example 3), read-out: MIC M. abscessus ATCC 19977 WT",0.25 µg/mL
same,MIC,M. abscessus; read-out: MIC M. abscessus engineered Δeis2,0.063 µg/mL
same,MIC,"M. abscessus; ATCC, Table 4 (Example 3), read-out: MIC M. abscessus ATCC",0.25 µg/mL
same,MIC,"M. abscessus; Clin. Isol., Table 4 (Example 3), read-out: MIC M. abscessus Clin. Isol.",0.5 µg/mL
same,IC50,"[2]; bacterial ribosome, Table 4 (Example 3), read-out: IC50 Bac",0.01 µM
same,"selectivity for the bacterial ribosome over mitochondrial (wild type, A1555G mutant) and cytosolic ribosomes, in words",[2]; compared with the parent compound,increased selectivity for the bacterial ribosome
same,Selectivity for Binding to the Bacterial Ribosome over the Mutant Mitochondrial Ribosome,[3],117
same,Selectivity for Binding to the Bacterial Ribosome over the Cytosolic Ribosome,[4]; Table 3 (Example 3),4000
same,IC50,"[4]; cytosolic, Table 4 (Example 3), read-out: IC50 Cyt",37 µM
same,Selectivity for Binding to the Bacterial Ribosome over the Mitochondrial Ribosome,[5]; Table 3 (Example 3),483
same,IC50,"[5]; mitochondrial, Table 4 (Example 3), read-out: IC50 Mit",4.7 µM
same,MIC,[6],0.5 µg/mL
same,MIC,[7],1 µg/mL
same,MIC,[8],0.5 to 1 µg/mL
same,zone of inhibition at 25 nmol/disc,N. gonorrhoeae,9 mm
same,MIC,"M. smegmatis SZ380; SZ380, read-out: MIC M. smegmatis SZ380 WT, SZ380 WT, Table 5 (Example 3)",< 0.063 µg/mL
same,MIC,"M. smegmatis SZ380; SZ380, read-out: MIC SZ380 M. smegmatis, strain SZ380 Mycobacterium smegmatis",< 0.0625 µg/mL
